From ChEMBL document CHEMBL3507680, “University of Dundee, Gates Library screen for HepG2 cell viability” come the findings set out here.

The data set is described as follows: Human HepG2 cell viability assay in 384 well format. It counts as toxicity, cell-based. Also noted: dose 125 nL, time 70.5 hour; cytotoxicity at 70.5 h: concentration not given beside the values. The settings on record: HepG2 cells, read-out: Inhibition.

For `CN(CC(=O)NCc1cccnc1N1CCCCC1)C(=O)c1cccs1`, the cytotoxicity at 70.5 h turned out to be 0.0514%.
Next, `Cn1cnnc1C1CCN(C(=O)CCCOc2ccccc2)CC1`: -0.661%; `Cc1ccccc1OCCC(=O)N1CCC(c2nncn2C)CC1`: -0.859%; `COc1cccc(S(=O)(=O)CCN2CCn3c(C)nnc3C2)c1`: 1.41%.
For the molecule `Cc1ncc2c(n1)CN(CCCOc1ccc(C#N)cc1)CC2`, the cytotoxicity at 70.5 h was determined as 3.97%.
With `OC(CN1CCN(Cc2nc(C3CC3)no2)CC1)c1ccccc1` (stereo not drawn) the figure was 2%.
With `N#Cc1ccc(OCC(O)CN2CCc3cncnc3C2)cc1` (stereo not drawn) the figure was 2.9%.
With `Cc1nnc(CN2CCN(CC(O)c3ccccc3)CC2)o1` (stereo not drawn) the figure was -1.4%.
Take `N#CCc1cccc(C(=O)N2CCN(CC(O)c3ccccc3)CC2)c1` (stereo not drawn): the cytotoxicity at 70.5 h is 2.39%.
For the molecule `COc1ccc2cc(C(=O)N3CCCC3Cn3cc(C)cn3)[nH]c2c1` (stereo not drawn), the cytotoxicity at 70.5 h came to 2.37%.
With `COc1ccc(OC)c(C(=O)N2CCCCC2Cn2cccn2)c1` (stereo not drawn) the figure was -0.39%.
With `CC(=O)Nc1nc(C(=O)N2CCCC2c2noc(C(C)C)n2)cs1` (stereo not drawn), the cytotoxicity at 70.5 h came out at 1.7%.
Consider `Cc1noc(C)c1CN1CCOC(CNc2cccnn2)C1` (stereo not drawn), for which the cytotoxicity at 70.5 h stood at 23.1%.
Next, `CCc1nc(CN2CCCN(C(=O)C(CC)OC)CC2)cs1` (stereo not drawn): 6.03%; `Cn1c(C2CC2)nc2c1CCN(CCOc1cccc(F)c1)C2`: 5.07%; `Cc1cc(CN(C)C(=O)NC2CCN(Cc3ccccn3)CC2)no1`: 1.36%.
With `CCc1nc(CN2CCCN(C(=O)CCCOC)CC2)cs1` the figure was 2.4%; with `CN(Cc1cnn(C)c1)C(=O)C1CCCN1Cc1ccccn1` (stereo not drawn), 26.2%; with `Cc1noc(CCCC(=O)NCC2CCS(=O)(=O)C2)n1` (stereo not drawn), 1.41%.
With `CCc1nc(CN2CCCN(C(=O)CCOC(C)C)CC2)cs1` the figure was 0.154%.
For `Cc1cc(CN2CCOC(CNc3cccnn3)C2)on1` (stereo not drawn), the cytotoxicity at 70.5 h was -0.746%.
Consider `CN(C)c1cc(CNC(=O)c2cccc(F)c2)ccn1`, for which the cytotoxicity at 70.5 h was 12.7%.
Next, `O=C(NCCN1CCCCCC1=O)c1ccc(=O)[nH]n1`: 2.56%; `COc1ccccc1C(O)CNC(=O)NCc1cc[nH]n1` (stereo not drawn): -4.26%.
With `CN(C)c1cc(CNC(=O)c2ccc(F)cc2)ccn1` the figure was 2.85%; with `CC(Cn1ccnc1)NC(=O)NCc1ccc2c(c1)OCCO2` (stereo not drawn), 2.17%.
With `O=C1CCc2cc(-c3csc(CCN4CCOC4=O)n3)ccc2N1` the figure was 2.18%; with `O=C1CCc2cc(-c3csc(CCN4CCOC4=O)n3)c(F)cc2N1`, 24.3%.
As to `CC(c1cc(F)ccc1F)N(C)C(=O)NCc1ccnc(N(C)C)c1` (stereo not drawn), the cytotoxicity at 70.5 h is 2.05%.
With `CC(C)c1nc2c(n1C)CCN(CC(=O)Nc1nncs1)C2` the figure was 6.98%; with `CN(C)c1ccc(C(=O)N2CCN(CC(O)C(C)(C)C)CC2)nn1` (stereo not drawn), 0.302%.
With `CCC(O)CN1CCN(C(=O)c2ccc(N(C)C)nn2)CC1` (stereo not drawn) the figure was -2.61%; with `Cc1cc(CN2CCOC(CNc3cccnn3)C2)no1` (stereo not drawn), 2.59%; with `OCC1CCCN1c1cc(NCc2cccnc2)ncn1` (stereo not drawn), -1.41%.
Next, `c1cnnc(NCC2CN(Cc3ccon3)CCO2)c1` (stereo not drawn): 26.6%; `Cn1c(C2CC2)nc2c1CCN(CC(=O)Nc1nccs1)C2`: -6.18%; `Cc1ncc(CN2CCOC(CNc3cccnn3)C2)s1` (stereo not drawn): 2.68%.
Consider `Cc1nnc2n1CCN(C(=O)c1ccnc(N(C)C)c1)C2`, for which the cytotoxicity at 70.5 h came to 6.98%.
With `CN(Cc1noc(C2CC2)n1)C1CCN(CCS(C)(=O)=O)C1` (stereo not drawn) the figure was -3.36%.
With `CCn1ccnc1CN1CCCC1c1noc(C2CC2)n1` (stereo not drawn) the figure was -2.39%.
Consider `Cc1ncsc1CNC(=O)N(CCCO)C1CCc2ccccc21` (stereo not drawn), for which the cytotoxicity at 70.5 h is -7.98%.
With `Cc1nc(C2CCCN2Cc2ccon2)no1` (stereo not drawn) the figure was -5.54%.
With `Cn1ccnc1CNCC1CCCN1c1cccnn1` (stereo not drawn) the figure was -4.3%; with `FC(F)(F)Cn1ccnc1CNCC1CCCN1c1cccnn1` (stereo not drawn), -13.2%; with `Cc1noc(C)c1CN(C)CC(=O)N1CCc2sccc2C1`, -1.77%.
Next, `CC(C)c1nc(C2CCCN2Cc2nccn2CC(F)(F)F)no1` (stereo not drawn): -8.8%; `CCOc1ncccc1C(=O)N1CCC(Nc2ccc(C)nn2)CC1`: -2.98%; `NC(=O)NC(=O)CN1CCN(c2nccs2)CC1`: -11.6%.
Take `NC(=O)NC(=O)CCN1CCN(c2nccs2)CC1`: the cytotoxicity at 70.5 h amounted to 19.6%.
With `CNC(=O)NC(=O)CCN1CCN(c2nccs2)CC1`, the cytotoxicity at 70.5 h is -0.375%.
With `COc1cc(C)c(C(C)NC(=O)NCCCn2cncn2)cc1OC` (stereo not drawn) the figure was -5.14%; with `Cc1nc(CN2CCOC(Cn3cccn3)C2)no1` (stereo not drawn), -3.79%.
Next, `Cc1cccc(-c2ccc(C(=O)NCC(C)(C)C(N)=O)c(=O)[nH]2)c1`: -18.8%.
With `COc1ccc(Cl)cc1NCC(=O)NCCc1ccccn1` the figure was 5.95%; with `CC(C)C(C(=O)N1CCC(N(C)c2cccnn2)CC1)n1cncn1` (stereo not drawn), -12.6%.
Regarding `Cc1ccc(NC2CCN(C(=O)CC3CCCO3)CC2)nn1` (stereo not drawn), the cytotoxicity at 70.5 h was -11.8%.
With `CC(C(=O)N1CCC(Nc2cccnn2)CC1)n1ccnc1` (stereo not drawn) the figure was -8.6%; with `Cc1nnc(CN2CCCC(c3cc(C(N)=O)[nH]n3)C2)o1` (stereo not drawn), -15.2%; with `c1ccc(CNC2CCc3ncnn3C2)nc1` (stereo not drawn), 6.6%.
With `CC(NCc1c(C(C)C)nn(C)c1N1CCOCC1)C(N)=O` (stereo not drawn) the figure was 15.3%; with `CC(C)c1nn(C)c(N2CCOCC2)c1CNCC(=O)N(C)C`, -6.07%.
With `CCN(CC)C(=O)C(c1ccccc1)N1CCn2c(C)nnc2C1` (stereo not drawn), the cytotoxicity at 70.5 h came to 2.24%.
On to `c1ccc(-n2ncc(CNC3CCc4ncnn4C3)n2)cc1` (stereo not drawn), for which the cytotoxicity at 70.5 h was -10.4%.
With `c1ccc(-c2cnc(CNC3CCCN(c4cccnn4)C3)o2)cc1` (stereo not drawn) the figure was -4.5%.
Next, `O=C(NCCOc1ccc2c(c1)CCC2)N1CCS(=O)(=O)CC1`: 23.8%; `O=C(Cc1ccccc1Cl)N1CCCC(n2cncn2)C1` (stereo not drawn): -7.27%; `Cc1ccc2oc(C(=O)N3CCCC(n4nc(C)cc4C)C3)cc2n1` (stereo not drawn): -2.12%.
Next, `Cc1ccc(NC(=O)C2CSCN2C(=O)c2cc[nH]n2)c(C)c1` (stereo not drawn): -2.12%; `Cc1cc(CNc2cc(Cl)ccc2Cl)no1`: -14.1%.
For the molecule `CC(C)NC(=O)C(c1ccccc1)N1CCn2c(nnc2C2CC2)C1` (stereo not drawn), the cytotoxicity at 70.5 h came to 2.95%.
With `Cc1ccccc1OCCC(=O)N1CCCC(n2cncn2)C1` (stereo not drawn) the figure was -6.17%.
Take `O=C(COc1ccc2c(c1)CCC2)NS(=O)(=O)c1cncc(Br)c1`: the cytotoxicity at 70.5 h was -2.54%.
Next, `Cc1ccoc1-c1nnc(CN2CCCC(Cn3cncn3)C2)o1` (stereo not drawn): -6.83%; `CNC(=O)c1ccc(CN(C(=O)c2scnc2C)C2CC2)cc1`: 29.9%; `CNC(=O)CCCNCc1c(C)nn(C)c1N(C)C`: -1.74%.
Turning to `COc1ccc(-c2nc(CN3CCc4c(ncn4C)C3)cs2)cc1`, the cytotoxicity at 70.5 h came to 21.3%.
Regarding `CCN(CC1CCOC1)C(=O)Nc1ccc(OC)nc1` (stereo not drawn), the cytotoxicity at 70.5 h worked out at 24.3%.
For the molecule `CCOc1ccc(Cl)c(C(=O)N(C)C)n1`, the cytotoxicity at 70.5 h was -2.99%.
With `Cc1ccc(CC(=O)N2CCc3nnc(N(C)C)cc3C2)cn1` the figure was -3.16%.
Regarding `Cn1ccc(CN2CCCC2c2ccc3c(c2)OCCCO3)cc1=O` (stereo not drawn), the cytotoxicity at 70.5 h was -12.3%.
Turning to `COc1ccc(CC(=O)N2CCc3nnc(N(C)C)cc3C2)cc1F`, the cytotoxicity at 70.5 h is -2.52%.
Consider `CCC1c2ccsc2CCN1C(=O)NCCNc1ncccn1` (stereo not drawn), for which the cytotoxicity at 70.5 h was determined as 0.287%.
Next, `COc1cccc(-n2nnc(C(=O)N3CCNC(=O)C3)c2C)c1`: 28%.
Next, `CN(C)c1cc(C(=O)N2CCN(S(C)(=O)=O)CC2)ccn1`: -1%.
Next, `CCC1c2ccsc2CCN1C(=O)NCc1cc[nH]n1` (stereo not drawn): -1.24%; `O=C(NCC1CCOC1)c1ccc(OCC(F)(F)F)nc1` (stereo not drawn): -5.4%.
Turning to `CCN(CC1CCOC1)C(=O)Nc1ccc(N2CCCC2)nc1` (stereo not drawn), the cytotoxicity at 70.5 h is -0.947%.
`CC(Nc1cccc(CN2CCOC2=O)c1)C(=O)Nc1ccccc1F` (stereo not drawn): the cytotoxicity at 70.5 h is -7.83%.
With `CC(C)N(Cc1cccc(F)c1)Cc1nc2c(cnn2C)c(=O)[nH]1` the figure was 0.718%.
Turning to `CC(C)CCN(C)C(=O)c1nc(S(C)(=O)=O)n2ccccc12`, the cytotoxicity at 70.5 h turned out to be 4.51%.
Turning to `CNC(=O)C1CCC(NC(=O)N(C)Cc2c(C)noc2C)CC1` (stereo not drawn), the cytotoxicity at 70.5 h worked out at 31.6%.
On to `Cc1noc(C)c1CN(C)C(=O)NC1CCN(C2CC2)CC1`, for which the cytotoxicity at 70.5 h is -2.65%.
On to `Cc1ccc(Cl)cc1N1CCC(CNC(=O)CC(F)(F)F)C1` (stereo not drawn), for which the cytotoxicity at 70.5 h stood at 1.39%.
With `Cn1cc(C(=O)NC2CCN(Cc3ccn(C)c(=O)c3)CC2)cn1` the figure was -14%; with `CC(C)(O)CN1CCN(C(=O)c2cc(Cl)cc3cccnc23)CC1`, -11.7%; with `Cn1cnc2c1CCN(Cc1ccc(C(=O)N3CCCC3)cc1)C2`, -3.6%.
As to `Cc1cc(C)n(CC2CCCN2CCCS(N)(=O)=O)n1` (stereo not drawn), the cytotoxicity at 70.5 h was -8.83%.
`Cn1cc(CN2CCCN(C(=O)c3cn4ccccc4n3)CC2)cn1`: the cytotoxicity at 70.5 h is -0.261%.
Next, `CS(=O)(=O)NCC1CCCN(C(=O)COCc2ccccc2)C1` (stereo not drawn): -12.3%; `O=C(NCc1cc[nH]n1)NCC(c1ccc(F)cc1)N1CCOCC1` (stereo not drawn): -12.9%; `CN1CCN(c2cc(CNC(=O)c3ccc(=O)[nH]n3)ccn2)CC1`: -21.2%.
With `Cc1cc(C(=O)NCc2ccnc(N3CCN(C)CC3)c2)c(C)s1` the figure was -18%.
Next, `CC(O)CN1CCC(CNCc2ccccc2Br)CC1` (stereo not drawn): -1.26%.
